From patent US20050197350A1, “Novel quinoline, tetrahydroquinazoline, and pyrimidine derivatives and methods of treatment related to the use thereof” (TAISHO PHARMACEUTICAL CO., LTD., priority 2003, published 2005)

tested on: MCH receptors; experiment: MCH receptor activity class (method not given); conditions: class by percent of control at 10^-7 M or IC50

SMILES	class
CN(C)c1ccnc(N[C@H]2CC[C@@H](NC(=O)CCc3ccccc3O)CC2)n1 [compound 818]	3 (Class 3 The value of percent of control at 10^−7 M was more than 60% or the value of IC50 was more than 200 nM.)
CN(C)c1ccnc(N[C@H]2CC[C@@H](NC(=O)c3ccc(I)o3)CC2)n1 [compound 819, N-(cis-4-{[4-(dimethylamino)pyrimidin-2-yl]amino}cyclohexyl)-5-iodo-2-furamide]	2 (Class 2: The value of percent of control at 10^−7 M was from 40% to 60% or the value of IC′50 was from 50 nM to 200 nM.)
CN(C)c1ccnc(N[C@H]2CC[C@@H](NC(=O)Cc3ccccc3I)CC2)n1 [compound 820]	3 (Class 3 The value of percent of control at 10^−7 M was more than 60% or the value of IC50 was more than 200 nM.)
COc1ccc2[nH]c(C)c(CC(=O)N[C@H]3CC[C@@H](Nc4nccc(N(C)C)n4)CC3)c2c1 [compound 821]	3 (Class 3 The value of percent of control at 10^−7 M was more than 60% or the value of IC50 was more than 200 nM.)
CN(C)c1ccnc(N[C@H]2CC[C@@H](NC(=O)/C=C/c3cccc([N+](=O)[O-])c3)CC2)n1 [compound 822]	3 (Class 3 The value of percent of control at 10^−7 M was more than 60% or the value of IC50 was more than 200 nM.)
CN(C)c1ccnc(N[C@H]2CC[C@@H](NC(=O)c3ccccc3Cc3ccccc3)CC2)n1 [compound 824]	3 (Class 3 The value of percent of control at 10^−7 M was more than 60% or the value of IC50 was more than 200 nM.)
CN(C)c1ccnc(N[C@H]2CC[C@@H](NC(=O)C(c3ccc(Cl)cc3)c3ccc(Cl)cc3)CC2)n1 [compound 825]	3 (Class 3 The value of percent of control at 10^−7 M was more than 60% or the value of IC50 was more than 200 nM.)
Cc1ccc(-c2ccc(C(=O)N[C@H]3CC[C@@H](Nc4nccc(N(C)C)n4)CC3)o2)c([N+](=O)[O-])c1 [compound 826, N-(cis-4-{[4-(dimethylamino)pyrimidin-2-yl]amino}cyclohexyl)-5-(4-methyl-2-nitrophenyl)-2-furamide]	2 (Class 2: The value of percent of control at 10^−7 M was from 40% to 60% or the value of IC′50 was from 50 nM to 200 nM.)
CN(C)c1ccnc(N[C@H]2CC[C@@H](NC(=O)c3ccc([N+](=O)[O-])s3)CC2)n1 [compound 827, N-(cis-4-{[4-(dimethylamino)pyrimidin-2-yl]amino}cyclohexyl)-5-nitrothiophene-2-carboxamide]	2 (Class 2: The value of percent of control at 10^−7 M was from 40% to 60% or the value of IC′50 was from 50 nM to 200 nM.)
Cc1cc(C(=O)N[C@H]2CC[C@@H](Nc3nccc(N(C)C)n3)CC2)ccc1[N+](=O)[O-] [compound 828, N-(cis-4-{[4-(dimethylamino)pyrimidin-2-yl]amino}cyclohexyl)-3-methyl-4-nitrobenzamide]	2 (Class 2: The value of percent of control at 10^−7 M was from 40% to 60% or the value of IC′50 was from 50 nM to 200 nM.)
COc1cc(C(=O)N[C@H]2CC[C@@H](Nc3nccc(N(C)C)n3)CC2)ccc1[N+](=O)[O-] [compound 829, N-(cis-4-{[4-(dimethylamino)pyrimidin-2-yl]amino}cyclohexyl)-3-methoxy-4-nitrobenzamide]	1 (Class 1: The value of percent of control at 10^−7 M was less than 40% or the value of IC50 was less than 50 nM.)
CN(C)c1ccnc(N[C@H]2CC[C@@H](NC(=O)c3cn(Cc4ccccc4)c4ccccc34)CC2)n1 [compound 830, 1-benzyl-N-(cis-4-{[4-(dimethylamino)pyrimidin-2-yl]amino}cyclohexyl)-1H-indole-3-carboxamide]	2 (Class 2: The value of percent of control at 10^−7 M was from 40% to 60% or the value of IC′50 was from 50 nM to 200 nM.)
CC(=O)c1cccc(C(=O)N[C@H]2CC[C@@H](Nc3nccc(N(C)C)n3)CC2)c1 [compound 831]	2 (Class 2: The value of percent of control at 10^−7 M was from 40% to 60% or the value of IC′50 was from 50 nM to 200 nM.)
CN(C)c1ccnc(N[C@H]2CC[C@@H](NC(=O)C3CCCC[C@H]3C(=O)c3ccccc3)CC2)n1 (stereo partly drawn) [compound 832]	3 (Class 3 The value of percent of control at 10^−7 M was more than 60% or the value of IC50 was more than 200 nM.)
CN(C)c1ccnc(N[C@H]2CC[C@@H](NC(=O)c3ccc(Br)o3)CC2)n1 [compound 833, 5-bromo-N-(cis-4-{[4-(dimethylamino)pyrimidin-2-yl]amino}cyclohexyl)-2-furamide]	1 (Class 1: The value of percent of control at 10^−7 M was less than 40% or the value of IC50 was less than 50 nM.)
CN(C)c1ccnc(N[C@H]2CC[C@@H](NC(=O)CCC3CCCCC3)CC2)n1 [compound 834]	3 (Class 3 The value of percent of control at 10^−7 M was more than 60% or the value of IC50 was more than 200 nM.)
Cc1ccnc(SCC(=O)N[C@H]2CC[C@@H](Nc3nccc(N(C)C)n3)CC2)n1 [compound 835]	3 (Class 3 The value of percent of control at 10^−7 M was more than 60% or the value of IC50 was more than 200 nM.)
CN(C)c1ccnc(N[C@H]2CC[C@@H](NC(=O)c3ccc(-c4ccc(Cl)cc4)o3)CC2)n1 [compound 836]	1 (Class 1: The value of percent of control at 10^−7 M was less than 40% or the value of IC50 was less than 50 nM.)

SMILES	class
CN(C)c1ccnc(N[C@H]2CC[C@@H](NC(=O)CCc3ccc(Cl)c(Cl)c3)CC2)n1 [compound 837]	3 (Class 3 The value of percent of control at 10^−7 M was more than 60% or the value of IC50 was more than 200 nM.)
CN(C)c1ccnc(N[C@H]2CC[C@@H](NC(=O)Cc3ccc(Cl)c(Cl)c3)CC2)n1 [compound 838]	3 (Class 3 The value of percent of control at 10^−7 M was more than 60% or the value of IC50 was more than 200 nM.)
COc1cc(CC(=O)N[C@H]2CC[C@@H](Nc3nccc(N(C)C)n3)CC2)cc(OC)c1O [compound 839]	3 (Class 3 The value of percent of control at 10^−7 M was more than 60% or the value of IC50 was more than 200 nM.)
COc1cc(CC(=O)N[C@H]2CC[C@@H](Nc3nccc(N(C)C)n3)CC2)cc(OC)c1 [compound 841]	3 (Class 3 The value of percent of control at 10^−7 M was more than 60% or the value of IC50 was more than 200 nM.)
CN(C)c1ccnc(N[C@H]2CC[C@@H](NC(=O)Cc3cc(C(C)(C)C)c(O)c(C(C)(C)C)c3)CC2)n1 [compound 842]	1 (Class 1: The value of percent of control at 10^−7 M was less than 40% or the value of IC50 was less than 50 nM.)
CN(C)c1cccc(C(=O)N[C@H]2CC[C@@H](Nc3nccc(N(C)C)n3)CC2)c1 [compound 844]	2 (Class 2: The value of percent of control at 10^−7 M was from 40% to 60% or the value of IC′50 was from 50 nM to 200 nM.)
CN(C)c1ccnc(N[C@H]2CC[C@@H](NC(=O)c3cc(Br)c(Br)o3)CC2)n1 [compound 845]	1 (Class 1: The value of percent of control at 10^−7 M was less than 40% or the value of IC50 was less than 50 nM.)
CN(C)c1ccnc(N[C@H]2CC[C@@H](NC(=O)CCC(=O)c3ccc(F)cc3)CC2)n1 [compound 846]	3 (Class 3 The value of percent of control at 10^−7 M was more than 60% or the value of IC50 was more than 200 nM.)
CN(C)c1ccnc(N[C@H]2CC[C@@H](NC(=O)[C@H](Cc3cn(Cc4ccccc4)cn3)NC(=O)OC(C)(C)C)CC2)n1 [compound 848]	3 (Class 3 The value of percent of control at 10^−7 M was more than 60% or the value of IC50 was more than 200 nM.)
CN(C)c1ccnc(N[C@H]2CC[C@@H](NC(=O)Cc3c[nH]c4ccccc34)CC2)n1 [compound 850]	2 (Class 2: The value of percent of control at 10^−7 M was from 40% to 60% or the value of IC′50 was from 50 nM to 200 nM.)
Cc1sc(-c2ccccc2)nc1CC(=O)N[C@H]1CC[C@@H](Nc2nccc(N(C)C)n2)CC1 [compound 851, N-(cis-4-{[4-(dimethylamino)pyrimidin-2-yl]amino}cyclohexyl)-2-(5-methyl-2-phenyl-1,3-thiazol-4-yl)acetamide]	2 (Class 2: The value of percent of control at 10^−7 M was from 40% to 60% or the value of IC′50 was from 50 nM to 200 nM.)
COc1ccc(CSC2(CC(=O)N[C@H]3CC[C@@H](Nc4nccc(N(C)C)n4)CC3)CCCCC2)cc1 [compound 853]	3 (Class 3 The value of percent of control at 10^−7 M was more than 60% or the value of IC50 was more than 200 nM.)
COc1ccc2c(CC(=O)N[C@H]3CC[C@@H](Nc4nccc(N(C)C)n4)CC3)cc(=O)oc2c1 [compound 854]	3 (Class 3 The value of percent of control at 10^−7 M was more than 60% or the value of IC50 was more than 200 nM.)
Cc1cc(C)c(NC(=O)Nc2ccc(OC(F)(F)F)cc2)c(C(=O)N[C@H]2CC[C@@H](Nc3nccc(N(C)C)n3)CC2)c1 [compound 857]	3 (Class 3 The value of percent of control at 10^−7 M was more than 60% or the value of IC50 was more than 200 nM.)
CN(C)c1ccnc(N[C@H]2CC[C@@H](NC(=O)c3cc(Cl)cc(Cl)c3NC(=O)C#Cc3ccccc3)CC2)n1 [compound 858]	2 (Class 2: The value of percent of control at 10^−7 M was from 40% to 60% or the value of IC′50 was from 50 nM to 200 nM.)
CN(C)c1ccnc(N[C@H]2CC[C@@H](NC(=O)c3cccc(-n4c(-c5ccc(Br)cc5)cc5c4CC(C)(C)CC5=O)c3)CC2)n1 [compound 859]	3 (Class 3 The value of percent of control at 10^−7 M was more than 60% or the value of IC50 was more than 200 nM.)
Cc1c(C(=O)N[C@H]2CC[C@@H](Nc3nccc(N(C)C)n3)CC2)cc(-c2ccccc2)n1CCCN1CCOCC1 [compound 863, N-(cis-4-{[4-(dimethylamino)pyrimidin-2-yl]amino}cyclohexyl)-2-methyl-1-(3-morpholin-4-ylpropyl)-5-phenyl-1H-pyrrole-3-carboxamide]	2 (Class 2: The value of percent of control at 10^−7 M was from 40% to 60% or the value of IC′50 was from 50 nM to 200 nM.)
CN(C)c1ccnc(N[C@H]2CC[C@@H](NC(=O)CCCc3ccc([N+](=O)[O-])cc3)CC2)n1 [compound 864, N-(cis-4-{[4-(dimethylamino)pyrimidin-2-yl]amino}cyclohexyl)-4-(4-nitrophenyl)butanamide]	2 (Class 2: The value of percent of control at 10^−7 M was from 40% to 60% or the value of IC′50 was from 50 nM to 200 nM.)
